Reference: ChEMBL document CHEMBL5500423, “More than an Amide Bioisostere: Discovery of 1,2,4-Triazole-containing Pyrazolo[1,5-a]pyrimidine Host CSNK2 Inhibitors for Combatting β-Coronavirus Replication” (J Med Chem, 2024)
Calls of active or inactive are those of the source. The calls are words filed in the database; no cut-off is given here.

Legend:
Format in all cases: functional, organism-based
[1] = test system: Mus musculus; settings: CD-1, dose 10.0 mg/kg, route ip, time 36.0 hrs
[2] = test system: Mus musculus; settings: CD-1, dose 10.0 mg/kg, route ip, time 36.0 hrs; remark: listed apart in the source
[3] = test system: SARS-CoV-2; settings: Severe acute respiratory syndrome coronavirus 2; MA10; dose 10.0 mg/kg, route ip, time 36.0 hrs
[4] = test system: SARS-CoV-2; experiment: Antiviral activity against activity SARS-CoV-2 infected in human A549-ACE2 cells assessed as inhibition of viral replication pretreated with cells for 1 hrs followed by viral infected for 2 hrs and replacement with fresh medium containing compounds and measured 48 hrs post infection; settings: Severe acute respiratory syndrome coronavirus 2, A549-ACE2

CCN(CCN)c1ccc(Nc2cc(NC3CC3)n3ncc(C#N)c3n2)cc1-n1cnnc1
inhibition [1]: inactive | inhibition [2]: inactive | Activity [3]: inactive | IC50 [4]: 390 nM
